The test system of experiment [1] is L. major/egfp promastigotes. As to the kind of experiment: Analysis of in vitro anti-leishmanial activity (growth inhibition, egfp fluorescence). The class given is cell-based, Leishmania major. The conditions noted are these: 25° C., 72 h, Amphotericin B positive control defined as 100%, FIG. 9. Here is the method: The compounds represented by formulas (1) to (6), which had been isolated by the procedure described above, were subjected to an analysis of the physiological activity under the conditions that are described below. Leishmania major promastigotes were selected as the Leishmania protozoa, and a L. major/egfp promastigotes in which a fluorescent protein egfp gene had been introduced was used. The compounds mentioned above were used as samples. Thus, the growth inhibition rate was determined under the following conditions.
L. major/egfp promastigotes were maintained at 25° C. using a 96-well plate, in 199 medium (NISSUI Pharmaceutical) containing 10% fetal bovine serum 25 mM and Hepes buffer (ICN Biomedeivals, Inc., Aurora, Ohio) and 10 μg/mL Tunicamycin (SIGMA-ALDRICH, inc., USA). Subsequently, to each well of 96-well plates containing 100 μL of L. major/egfp suspension with 1×10^6 cells/mL, 100 μL of test solution (sample dissolved in DMSO) was added, and the plates were incubated at 25° C. for 72 h. Thereafter, Fluorescence signals of L. major/egfp promastigotes were measured with a fluorescence microplate reader (Fluoroscan Ascent FL, Dainippon Pharmaceutical Co.) with excitation at 485 nm and emission at 538 nm. […]

Experiment [2] concerns L. major PM2. As to the kind of experiment: Analysis of in vivo anti-leishmanial activity in leishmaniasis mouse model. Conditions: Balb/c mice infected with L. major PM2; 200 μg by peritoneal injection once a day for three weeks; FIG. 10-12. Here is the method:
In order to evaluate the in vivo anti-leishmanial activity of the compound represented by formula (3), which had been isolated by the procedure described above, a leishmaniasis mouse model was used to investigate the therapeutic effect. Six-week old mice (Balb/c, male, 6 animals per group) were infected with 1×10^7 cells of cultured promastigotes of L. major PM2. From the day after the infection day, the compound represented by the formula (3) was administered to each specimen in an amount of 200 [μg by peritoneal injection. The administration schedule was such that the compound was continuously administered once a day for three weeks. Further, as control, the same analysis was carried out also for a treatment group to which Amphotericin B was administered, and for a treatment group to which none was administered.

Turning to `CC(C)=CCC/C(C)=C/CC/C(C)=C/CC/C(C)=C/CC1(CC(=O)O)CC(=O)C=CC1=O` (centres unmarked) [formula (3)], the growth inhibition rate entry in experiment [1] was “almost equal to the growth inhibition rate of Amphotericin B”. For the same compound, in experiment [2], the “in vivo anti-leishmanial activity (size of ulcer, antibody titer in blood, protozoan DNA in blood)” value is on record as “equal to that of Amphotericin B”.

The values above are taken from US8373006B2, “Anti-leishmanial compound and anti-leishmanial drug” (Aoyama Gakuin Educational Foundation, priority 2010, dated 2013).
